According to US10770169B2, “Method of providing a treatment to a subject based on a dynamic pathway map” (THE REGENTS OF THE UNIVERSITY OF CALIFORNIA, priority 2010, dated 2020):
Read-outs that look alike come from different tables or passages of the source.

Key:
[1] = test system: panel of 55 breast cancer cell lines; assay: Cell growth inhibition assay (Cell Titer Glo, 72 h, 9 doses; GI50, TGI, LC50); assay type: cell-based, human; details: Homo sapiens, read-out: GI50 (converted)
[2] = test system: luminal, basal, claudin-low and ERBB2AMP breast cancer cell lines; assay: Associations of clinically relevant subtypes and response (non-parametric ANOVA or t-test on GI50 ranks); assay type: cell-based, human
Summary of the method: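 Significance was set at FDR p<0.20 after combining p-values across three test sets. Subtype–response associations came from rank-based non-parametric ANOVA or t-tests on GI50. For three-class comparisons, post-hoc tests of each group against the rest identified the most sensitive group, with FDR correction.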

CC(=O)O[C@@]12CO[C@@H]1C[C@H](O)[C@@]1(C)C(=O)[C@H](O)C3=C(C)[C@@H](OC(=O)[C@H](O)[C@@H](NC(=O)OC(C)(C)C)c4ccccc4)C[C@@](O)([C@@H](OC(=O)c4ccccc4)[C@H]21)C3(C)C [Docetaxel]
GI50 ([1]; 600MPE cell line, censored GI50 values): 97.7 nM
GI50 ([1]; AU565, AU565 cell line, censored GI50 values): 5.25 nM
GI50 ([1]; AU565, cell line AU565): 5.25 nM
GI50 ([1]; BT-474, BT474 cell line, censored GI50 values): 6.31 nM
GI50 ([1]; BT-474, cell line BT474): 6.31 nM
GI50 ([1]; BT-483, BT483 cell line, censored GI50 values): 23.4 nM
GI50 ([1]; BT-483, cell line BT483): 23.4 nM
GI50 ([1]; CAMA-1, CAMA1 cell line, censored GI50 values): 5.62 nM
GI50 ([1]; CAMA-1, cell line CAMA1): 5.62 nM
GI50 ([1]; HCC38, HCC38 cell line, censored GI50 values): 2.04 nM
GI50 ([1]; HCC38, cell line HCC38): 2.04 nM
GI50 ([1]; HCC70, HCC70 cell line, censored GI50 values): 5.13 nM
GI50 ([1]; HCC70, cell line HCC70): 5.13 nM
GI50 ([1]; HCC202, HCC202 cell line, censored GI50 values): 3.72 nM
GI50 ([1]; HCC202, cell line HCC202): 3.72 nM
GI50 ([1]; HCC1143, HCC1143 cell line, censored GI50 values): 11 nM
GI50 ([1]; HCC1143, cell line HCC1143): 11 nM
GI50 ([1]; HCC1187, HCC1187 cell line, censored GI50 values): 2.51 nM
GI50 ([1]; HCC1187, cell line HCC1187): 2.51 nM
GI50 ([1]; HCC1395, HCC1395 cell line, censored GI50 values): 5.62 nM
GI50 ([1]; HCC1395, cell line HCC1395): 5.62 nM
GI50 ([1]; HCC1419, HCC1419 cell line, censored GI50 values): 16.6 nM
GI50 ([1]; HCC1419, cell line HCC1419): 16.6 nM
GI50 ([1]; HCC1428, HCC1428 cell line, censored GI50 values): 5010 nM
GI50 ([1]; HCC1428, cell line HCC1428): 5010 nM
GI50 ([1]; HCC1500, HCC1500 cell line, censored GI50 values): 2.75 nM
GI50 ([1]; HCC1500, cell line HCC1500): 2.75 nM
GI50 ([1]; HCC1806, HCC1806 cell line, censored GI50 values): 2.57 nM
GI50 ([1]; HCC1806, cell line HCC1806): 2.57 nM
GI50 ([1]; HCC1954, HCC1954 cell line, censored GI50 values): 1.66 nM
GI50 ([1]; HCC1954, cell line HCC1954): 1.66 nM
GI50 ([1]; HCC2185 cell line, censored GI50 values): 3.02 nM
GI50 ([1]; HCC3153 cell line, censored GI50 values): 9.77 nM
GI50 ([1]; LY2 cell line, censored GI50 values): 4.27 nM
GI50 ([1]; MCF7, MCF7 cell line, censored GI50 values): 12.3 nM
GI50 ([1]; MCF7, cell line MCF7): 12.3 nM
GI50 ([1]; MDA-MB-134-VI, MDAMB134VI cell line, censored GI50 values): 23.4 nM
GI50 ([1]; MDA-MB-175-VII, MDAMB175VII cell line, censored GI50 values): 15.8 nM
GI50 ([1]; MDA-MB-231, MDAMB231 cell line, censored GI50 values): 2.82 nM
GI50 ([1]; MDA-MB-231, cell line MDAMB231): 2.82 nM
GI50 ([1]; MDA-MB-361, MDAMB361 cell line, censored GI50 values): 5.62 nM
GI50 ([1]; MDA-MB-361, cell line MDAMB361): 5.62 nM
GI50 ([1]; MDA-MB-415, MDAMB415 cell line, censored GI50 values): 2.88 nM
GI50 ([1]; MDA-MB-415, cell line MDAMB415): 2.88 nM
GI50 ([1]; MDA-MB-436, MDAMB436 cell line, censored GI50 values): 17 nM
GI50 ([1]; MDA-MB-436, cell line MDAMB436): 17 nM
GI50 ([1]; MDA-MB-453, MDAMB453 cell line, censored GI50 values): 4.37 nM
GI50 ([1]; MDA-MB-453, cell line MDAMB453): 4.37 nM
GI50 ([1]; MDA-MB-468, MDAMB468 cell line, censored GI50 values): 2.88 nM
GI50 ([1]; MDA-MB-468, cell line MDAMB468): 2.88 nM
GI50 ([1]; SK-BR-3, SKBR3 cell line, censored GI50 values): 7.59 nM
GI50 ([1]; SK-BR-3, cell line SKBR3): 7.59 nM
GI50 ([1]; SUM52PE, SUM52PE cell line, censored GI50 values): 1.82 nM
GI50 ([1]; SUM52PE, cell line SUM52PE): 1.82 nM
GI50 ([1]; SUM149PT, SUM149PT cell line, censored GI50 values): 1.74 nM
GI50 ([1]; SUM149PT, cell line SUM149PT): 1.74 nM
GI50 ([1]; SUM185PE, SUM185PE cell line, censored GI50 values): 5010 nM
GI50 ([1]; SUM185PE, cell line SUM185PE): 5010 nM
GI50 ([1]; SUM1315MO2, SUM1315MO2 cell line, censored GI50 values): 2.95 nM
GI50 ([1]; SUM-159-PT, SUM159PT cell line, censored GI50 values): 4.57 nM
GI50 ([1]; SUM-159-PT, cell line SUM159PT): 4.57 nM
GI50 ([1]; UACC-812, UACC812 cell line, censored GI50 values): 3.24 nM
GI50 ([1]; UACC-812, cell line UACC812): 3.24 nM
GI50 ([1]; UACC-893, UACC893 cell line, censored GI50 values): 11.5 nM
GI50 ([1]; UACC-893, cell line UACC893): 11.5 nM
GI50 ([1]; ZR-75-1, ZR751 cell line, censored GI50 values): 28.2 nM
GI50 ([1]; ZR-75-1, cell line ZR751): 28.2 nM
GI50 ([1]; ZR-75-30, ZR7530 cell line, censored GI50 values): 3.98 nM
GI50 ([1]; ZR-75-30, cell line ZR7530): 3.98 nM
GI50 ([1]; ZR-75B, ZR75B cell line, censored GI50 values): 15.5 nM
GI50 ([1]; ZR-75B, cell line ZR75B): 15.5 nM
GI50 ([1]; cell line 600MPE): 97.7 nM
GI50 ([1]; cell line HCC2185): 3.02 nM
GI50 ([1]; cell line HCC3153): 9.77 nM
GI50 ([1]; cell line LY2): 4.27 nM
GI50 ([1]; cell line MDAMB134V): 23.4 nM
GI50 ([1]; cell line MDAMB175V): 15.8 nM
GI50 ([1]; cell line SUM1315MO): 2.95 nM
subtype-specific response (sensitivity by transcriptional subtype) ([2]; GI50 across subtypes): preferential activity in basal and/or claudin-low cell lines
Subtype specificity ([2]; Table 6, most sensitive subtype, FDR p<0.20): Basal
